Data as given in the NIST ThermoML archive (doi:10.1016/j.jct.2007.06.016).
Numbers after ± are expanded uncertainties.

Legend:
[1] = refractive index (Na D-line) (dimensionless); conditions: 298.15 K; 101.33 kPa; Liquid; Standard Abbe refractometry
[2] = 298.15 K, 101.33 kPa, Liquid

refractive index [1] | mass density [2] [kg/m3] | SMILES | mass density ([2]; Vibrating tube method) [kg/m3]
1.42403 ± 0.00068 | 773.76 ± 0.52 | C1CCCCC1 [cyclohexane] | –
1.42011 ± 0.0007 | 745.32 ± 0.91 | CCCCCCCCCCCC [dodecane] | –
1.52581 ± 0.0007 | 1058.5 ± 0.55 | c1ccsc1 [thiophene] | –

SMILES | refractive index [1] | mass density [2] [kg/m3] | mass density ([2]; Vibrating tube method) [kg/m3]
CCCCCCCCn1cc[n+](C)c1.O=S(=O)([N-]S(=O)(=O)C(F)(F)F)C(F)(F)F | 1.43331 ± 0.0012 | – | 1320.76 ± 9.5
